Structures can show the parent of a compound that is named as a salt. Where two headings read alike, the source gives them in different places.
Columns and labels:
[1] = system: Rats(Sprague-Dawley, female); assay: Anti-inflammatory test (carrageenin paw edema); assay type: in vivo; settings: Rattus norvegicus, sc
Experimental: Rats(Sprague-Dawley, female) weighing 100 to 120g were used. Twenty minutes after the test drug was administered(s. c.), carrageenin was injected(0.1mℓ of 1% solution, s. c.) in the plantar surface of the right hind paw.
The percentage of inhibition was determined by the following equation: Inhibition(%) =(Volume of the carrageenin treated foot - Volume of the control foot)/(Volume of the contol foot)x 100 [formula]

mice = assay: Tail-flick test (radiant heat); assay type: in vivo; settings: p. o., dose 100 mg/Kg
Experimental: Radiant heat was applied using a beam of high-intensity light focused on a tail spot. The response time, defined as the interval between the onset of the stimulus and the tail flick, was measured electronically(to the nearest 0.1 second). The beam intensity was set at a level giving a mean control reaction time of 3.8±0.4 seconds. […] The percentage of inhibition was determined by the following equation: Inhibition(%) =(Reaction time of the treated group - Reaction time of the control group)/(Reaction time of the control group)x 100 [formula]

[2] = system: Male albino rats(120-170g) of the Charles River Sprague-Dawley strain; assay: Randall-Selitto test (yeast induced hyperalgesia); assay type: in vivo
Experimental: Randall-Selitto Test was carried out by following the method described in Arch. Int. Pharmacodyn.
Male albino rats(120-170g) of the Charles River Sprague-Dawley strain were used. Inflammation was produced by the injection of 0.1mℓ of a 20% suspension of Brewer's yeast into the plantar surface of the rat's hind foot.
The pain threshold was measured as the pressure in mmHg required to induce the desired response(a sharp audible squeak and/or struggle) when the pressure was applied to the foot. Air pressure from an air line was admitted through a needle valve to a 20mℓ glass syringe and to a pressure gauge which was connected by a T-tube. The syringe was mounted with the plunger downward to which was connected a short bullet-shaped Teflon peg. The pressure was applied to the foot of the rat at the rate of 10 mmHg per second. Drug was given 2 hours after the yeast injection. Two hours after the drug administration, threshold response was determined.
The analgesic activity was determined in terms of the percentage of inhibition of response: Inhibition(%) =(Threshold of the treated group - Threshold of the control group)/(Threshold of the control group)x 100 [formula]

[3] = Use Examples: administration of compositions to human subjects; assay type: in vivo; settings: Use Example 2 soft gelatin capsules in sesame oil; two capsules, each 27mg of the composition; 63Kg person
Experimental: One tablet was administered orally to a patient(weight: 67kg) in need of analgesia two times daily to successfully provide the effect of general analgesia.
The compound of Example 5 was dissolved in sesame oil with the aid of sonication and was packaged in soft gelatin capsules using the common methods known in the art.
The above ingredients were mixed to produce a syrup which was packaged under a sterile condition in 6 oz. bottles. One teaspoon of this formulation was administrated to a 70kg adult, reducing inflammation and producing analgesia.
The compound of Example 1 was dissolved in a solution containing the other ingredients.

KTC-ICR mice [4] = assay: acetic acid induced writhing test; assay type: in vivo; settings: Mus musculus; oral; 0.9% acetic acid i.p. 60 minutes later; writhings during 10 minutes; mice 20 to 25g; Examples 1 to 32
Experimental: (§1) The KTC-ICR mice derived from Charles River Breeding Laboratory in the United States and provided by Experimental Animal Laboratory of Korea Research Institute of Chemical Technology were used as test animals. […] They were tested after having been adjusted to the testing environment for a week. Food and water were given freely; and illumination was maintained on a 12-hour cycle.
(§2) Experiments were performed in two ways: that is, the acetic acid induced writhing test and the phenyl-1,4-benzoquinone(PBQ) induced writhing test.
Solutions for the acetic acid induced writhing test were prepared by dissolving one of the end products prepared in Examples […] in a saline solution containing 1% by weight of Tween 80 to have a concentration of 5mg/mℓ and diluting it serially with the saline solution. The test solutions were administered orally in a dose of 0.3mℓ per 30g of body weight, using the 5 ICR mice for each test. 60 minutes later, 0.9% acetic acid solution was administered intraperitoneally in a dose of 0.1mℓ per 30g of body weight. 3 minutes thereafter, the number of writhings generated during a period of 10 minutes due to the administration of acetic acid was measured. For comparison purpose, initially, saline solution alone was administered orally to the control group. 60 minutes thereafter, 0.9% acetic acid solution was administered intraperitoneally to the control group.
(§3) The number of writhings suffered by the test group was compared with that of the control group; and the analgesic effect was measured in terms of the percentage of inhibition of writhing(I. W.). I. W. (%) =(A - B)/(A)x 100 [formula] A : the number of writhings suffered by the control group, B : the number of writhings suffered by the test group.
(§4) These ED50 values for the test compounds are shown in the last column of Table 1.

acute toxicity test = settings: mouse, in vivo, po, per os, 5 weeks old, observed for 14 days
test animals = assay: Behavior analysis (side-effect or toxicity scores); assay type: in vivo; set-up: key to Sedation / Dyspnoea / Vasodilation / Convulsion / Salivation / Urination: behavior score; higher number = greater side effects; settings: behavior score; for Convulsion / Salivation / Urination: normal value 0; for Dyspnoea / Ptosis / Sedation / Vasodilation: normal value 4
Text: In order to monitor a harmful side-effect or toxicity of the compounds having the formula(I), various behavioral changes in the test animals were observed. […] The higher the number is, the greater the side effects are.

KTC-ICR mice [5] = assay: phenyl-1,4-benzoquinone(PBQ) induced writhing test; assay type: in vivo; settings: Mus musculus; oral; 0.02% PBQ i.p. 60 minutes later; writhings during 5 minutes; mice 10 to 15g; Examples 33 to 46
Experimental: as §1, §2
Alternatively, solutions for the PBQ induced writhing test were prepared by dissolving one of the products synthesized in Examples 33 to 46 in a mixture of Tween 80, alcohol and distilled water (1:5:94); and administered orally to the 5 ICR mice for each test in a dose of 0.3mℓ per 30g of body weight. 60 minutes later, 0.02% PBQ solution was administered intraperitoneally in a dose of 0.1mℓ per 30g of body weight of the test animals. 5 minutes thereafter, at the temperature of 40°C, the number of writhings occurred during a period of 5 minutes due to the PBQ solution administered was measured. For comparison, only the mixture of Tween 80, alcohol and distilled water was administered orally to the control group; and, after 60 minutes, the PBQ solution was administered intraperitoneally to the control group in the same manner as mentioned above.
as §3, §4

[6] = 5 ICR female mice, read-out: LD50(female)
[7] = 5 ICR male mice, read-out: LD50(male)

Which ED50 ([1]; 3 h) does the source give for CC(=O)Oc1ccccc1C(=O)O [Aspirin] here?
Its ED50 is 109 mg/kg.

And the “Inhibition(%)” value (mice)?
The value was 0%.

What about the “Inhibition(%)” value ([2]; dose 100 mg/Kg s. c., 10 rats, pain threshold vs yeast-treated saline control) of the same molecule?
The value was 80.1%.

With COc1cc(CC(=O)NCCCc2ccc(C)c(C)c2)ccc1OCCN [Example 1-HCl] as the molecule, how does the “Inhibition(%)” value ([2]; dose 1.5 mg/Kg s. c., 8 rats) read?
The value was 248.3%.

Which results are given for COc1cc(CC(=O)NCCCc2cccc(C)c2)ccc1OCCN [Example 5]?
ED50 ([1]; s. c., twenty minutes before carrageenin, edema volume 3 hours later, read-out: ED50): 16.9 mg/kg; analgesic and anti-inflammatory effect in a human subject [3]: producing the effects of analgesia and reducing inflammation; ED50 (KTC-ICR mice [4]): 0.07 mg/kg; LD50 at 336 h (acute toxicity test; [6]): 125 mg/kg; LD50 at 336 h (acute toxicity test; [7]): 125 mg/kg

What does the source list for Cc1ccc(CCCNC(=O)Cc2ccc(OCCN)c(F)c2)cc1 [Example 11]?
ED50 (KTC-ICR mice [4]): 0.01 mg/kg; LD50 at 336 h (acute toxicity test; [6]): 322 mg/kg; LD50 at 336 h (acute toxicity test; [7]): 500 mg/kg

With Cc1cc(C)cc(CCCNC(=O)Cc2ccc(OCCN)c(F)c2)c1 [Example 15] as the molecule, how does the ED50 (KTC-ICR mice [4]) read?
The ED50 was 0.02 mg/kg.

And the LD50 at 336 h (acute toxicity test; [6])?
Its LD50 at 336 h is over 2000 mg/kg.

What about the LD50 at 336 h (acute toxicity test; [7]) of the same molecule?
The LD50 at 336 h was over 2000 mg/kg.

Which Convulsion (test animals; dose 6.7mg/Kg) does the source give for Cc1cccc(CCCNC(=O)Cc2ccc(OCCN)c(N)c2)c1 [Example 38, N-{3-(3-methylphenyl)propyl}-4-(2-aminoethoxy)-3-aminophenylacetamide] here?
Its Convulsion is 0.

And the Salivation (test animals; dose 6.7mg/Kg)?
The Salivation was 0.

What about the Urination (test animals; dose 6.7mg/Kg) of the same molecule?
Its Urination is 0.

What about the Dyspnoea (test animals; dose 6.7mg/Kg) of the same molecule?
The Dyspnoea was 4.

And the Ptosis (test animals; dose 6.7mg/Kg)?
The Ptosis was 4.

And the Sedation (test animals; dose 6.7mg/Kg)?
Its Sedation is 4.

And the Vasodilation (test animals; dose 6.7mg/Kg)?
The Vasodilation was 4.

And the Convulsion (test animals; dose 20mg/Kg)?
Its Convulsion is 0.

What about the Salivation (test animals; dose 20mg/Kg) of the same molecule?
Its Salivation is 0.

What about the Urination (test animals; dose 20mg/Kg) of the same molecule?
The Urination was 0.

And the Dyspnoea (test animals; dose 20mg/Kg)?
The Dyspnoea was 4.

And the Ptosis (test animals; dose 20mg/Kg)?
Its Ptosis is 5.

What about the Sedation (test animals; dose 20mg/Kg) of the same molecule?
The Sedation was 4.

What about the Vasodilation (test animals; dose 20mg/Kg) of the same molecule?
Its Vasodilation is 4.

And the Convulsion (test animals; dose 60mg/Kg)?
Its Convulsion is 0.

What about the Salivation (test animals; dose 60mg/Kg) of the same molecule?
The Salivation was 0.

And the Urination (test animals; dose 60mg/Kg)?
The Urination was 0.

And the Dyspnoea (test animals; dose 60mg/Kg)?
The Dyspnoea was 7.

And the Ptosis (test animals; dose 60mg/Kg)?
The Ptosis was 7.

And the Sedation (test animals; dose 60mg/Kg)?
Its Sedation is 6.

What about the Vasodilation (test animals; dose 60mg/Kg) of the same molecule?
The Vasodilation was 4.

What about the ED50 (KTC-ICR mice [5]) of the same molecule?
The ED50 was 22.1 mg/kg.

— patent EP0525360B1, “Novel phenylacetamide derivatives and processes for the preparation thereof” (KOREA RESEARCH INSTITUTE OF CHEMICAL TECHNOLOGY, priority 1991, dated 1993)
